US20120277187A1, “Agent for Preventing Infection” (priority 2006, published 2012)
“Also recorded” adds a separate entry of the source.

Experiments:
Assay type in all cases: in vivo, mouse (Balb/c)
[1] = test system: influenza virus PR 8 (H1N1); assay: Oral administration of sphingomyelin, prevention of influenza virus infection in mice (nasal cavity wash virus titer, plaque method with MDCK cell); conditions: for Nasal cavity virus titer x (PFU/ml: 10^x): 1×10^3 pfu PR 8 (H1N1), nasal cavity washes 3 days after infection
Description: (Verification of the Effect of Oral Administration of Sphingomyelin on the Prevention of Infection with an Influenza Virus)
A mouse (Balb/c, male, 6 weeks of age) was infected with 1×10^3 pfu in viral quantity of influenza virus PR 8 (H1N1). Before the infection treatment, sphingomyelin was orally administered, and its infection preventive effect was judged by the virus titer in the nasal cavity washes 3 days after the virus infection. In carrying out the oral administration, sphingomyelin was used by dispersing in water. A plaque method which uses MDCK cell was used in the judgment.
This indicates the effect of sphingomyelin to prevent infection with an influenza virus.

[2] = test system: A/Guizhou virus (type A influenza virus); assay: Transnasal sphingomyelin with simultaneous type A influenza virus infection in mice (nasal cavity wash virus titer, plaque method with MDCK cell)
Procedure: (§1) (Verification of the Effect to Prevent Infection with Type A Influenza Virus and Type B Influenza Virus)
(§2) Mice (Balb/c, male, 6 weeks of age) were transnasally infected with A/Guinzhou virus as the type A influenza virus or B/Ibaraki virus as the type B influenza virus, and at the same time, a 100 μg/ml solution of the sphingomyelin (SPM) obtained in Example 1 was transnasally administered at a dose of 5 μl/nasal cavity dose (dose: 0.5 μg), and the preventive effect on the infection with an influenza virus was judged by the virus titer in the nasal cavity washes. In this connection, groups transnasally infected with respective influenza viruses alone were prepared. A plaque method which uses MDCK cell was used in the judgment.

[3] = test system: B/Ibaraki virus (type B influenza virus); assay: Transnasal sphingomyelin with simultaneous type B influenza virus infection in mice (nasal cavity wash virus titer, plaque method with MDCK cell)
Procedure: as §1, §2

sphingomyelin [SPM] was tested, and the “Nasal cavity virus titer x (PFU/ml: 10^x)” value ([1]; 1 mg oral before infection) was 2.23 ± 0.16 PFU/ml: 10^x, the “Nasal cavity virus titer x (PFU/ml: 10^x)” value ([1]; 10 mg oral before infection) was 2.15 ± 0.29 PFU/ml: 10^x and the “Nasal cavity virus titer in administration group (in words)” value ([1]; oral administration group versus control (no administration)) was “lowered with significance”. For the same substance, the “Nasal cavity virus titer” value ([2]; A/Guizhou virus, transnasal 100 μg/ml, 5 μl/nasal cavity (dose 0.5 μg) at the same time as infection) was 1.99 ± 0.31, the “Infection preventive effect (in words)” value ([2]; type A influenza virus, transnasal administration) was “confirmed; also recorded: more considerable effect” and the “Nasal cavity virus titer” value ([3]; B/Ibaraki virus, transnasal 100 μg/ml, 5 μl/nasal cavity (dose 0.5 μg) at the same time as infection) was 2.73 ± 0.06. The “Infection preventive effect (in words)” value ([3]; type B influenza virus, transnasal administration) was “confirmed”.
